Source: article PMC6080930 (The Journal of Cell Biology, 2018)

Target: adenylyl cyclase A (ACA); ACA-YFP (Dictyostelium discoideum, UniProt Q03100)
Conditions: labelled compound; 2 mM MnSO4, 2 mM MgSO4, Tris pH 8.0, 22°C, 10 min; lysed EVs

adenylyl cyclase A (ACA); ACA-YFP, sequence (Q03100 whole entry): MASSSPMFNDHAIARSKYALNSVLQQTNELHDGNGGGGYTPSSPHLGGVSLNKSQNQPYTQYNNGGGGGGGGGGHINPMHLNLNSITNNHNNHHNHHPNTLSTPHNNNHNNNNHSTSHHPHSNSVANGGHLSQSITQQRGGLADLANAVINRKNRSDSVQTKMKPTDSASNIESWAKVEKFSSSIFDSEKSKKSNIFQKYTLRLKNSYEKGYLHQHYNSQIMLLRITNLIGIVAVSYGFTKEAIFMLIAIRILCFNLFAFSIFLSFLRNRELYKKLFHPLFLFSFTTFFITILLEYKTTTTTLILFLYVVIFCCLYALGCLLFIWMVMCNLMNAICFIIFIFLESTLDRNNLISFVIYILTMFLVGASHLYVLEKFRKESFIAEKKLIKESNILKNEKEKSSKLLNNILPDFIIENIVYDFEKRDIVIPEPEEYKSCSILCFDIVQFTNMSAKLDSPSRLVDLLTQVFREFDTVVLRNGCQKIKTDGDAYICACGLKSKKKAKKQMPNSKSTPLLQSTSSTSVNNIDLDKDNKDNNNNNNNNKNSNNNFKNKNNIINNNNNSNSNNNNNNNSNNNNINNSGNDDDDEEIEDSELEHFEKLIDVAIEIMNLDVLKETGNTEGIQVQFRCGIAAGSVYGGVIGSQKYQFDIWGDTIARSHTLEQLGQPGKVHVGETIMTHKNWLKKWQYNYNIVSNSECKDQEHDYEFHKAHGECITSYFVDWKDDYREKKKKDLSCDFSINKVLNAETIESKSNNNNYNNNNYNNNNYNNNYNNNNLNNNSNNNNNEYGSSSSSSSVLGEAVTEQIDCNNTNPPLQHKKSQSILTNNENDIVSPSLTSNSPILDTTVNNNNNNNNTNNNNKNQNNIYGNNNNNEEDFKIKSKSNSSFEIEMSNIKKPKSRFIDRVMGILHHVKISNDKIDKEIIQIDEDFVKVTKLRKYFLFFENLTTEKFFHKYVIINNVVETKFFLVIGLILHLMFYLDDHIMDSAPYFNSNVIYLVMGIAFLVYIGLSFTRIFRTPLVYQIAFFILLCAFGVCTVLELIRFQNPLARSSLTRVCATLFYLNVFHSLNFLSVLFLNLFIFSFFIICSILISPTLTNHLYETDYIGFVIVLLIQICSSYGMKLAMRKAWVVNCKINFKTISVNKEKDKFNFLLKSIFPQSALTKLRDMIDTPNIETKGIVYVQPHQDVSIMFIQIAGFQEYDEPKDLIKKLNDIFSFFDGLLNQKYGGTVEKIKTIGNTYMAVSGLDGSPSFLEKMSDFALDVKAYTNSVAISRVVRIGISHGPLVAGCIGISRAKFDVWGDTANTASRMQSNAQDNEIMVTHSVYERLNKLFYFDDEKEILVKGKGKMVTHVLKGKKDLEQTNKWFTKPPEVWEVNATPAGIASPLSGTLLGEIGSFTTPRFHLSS

Q: How did the “conversion of [32P]ATP to [32P]cAMP, Dowex/alumina columns” value turn out when `Nc1ncnc2c1ncn2[C@@H]1O[C@H](COP(=O)(O)OP(=O)(O)OP(=O)(O)O)[C@@H](O)[C@H]1O` [ATP] was run?
A: The value was “MnSO4 induced an increase in adenylyl cyclase activity in ACA-YFP/aca^− EVs”.
